Source: patent US8658650B2, “Substituted 1,1,3,1-tetraoxidobenzo[D][1,3,2]dithiazoles as MGLUR4 allosteric potentiators, compositions, and methods of treating neurological dysfunction” (Vanderbilt University, priority 2009, dated 2014)
Like-named read-outs stand apart in the source and are kept apart here.

Tests used:
mGluR4 = mGluR4 (UniProt Q14833); assay: mGluR4 potentiation assay (activity table; fluorescence plate reader, compound then EC20 agonist); type: cell-based; conditions: for % GluMax: maximum extent of potentiation; for EC50: potentiation of mGluR4, species of receptor not given
Procedure: The disclosed compounds and compositions can be evaluated for their ability to act as a potentiator of metabotropic glutamate receptor activity, in particular mGluR4 activity, by any suitable known methodology known in the art. For example, Chinese Hamster Ovary (CHO) cells transfected with human mGluR4 or HEK cells co-transfected with rat mGluR4 and the G-protein regulated Inwardly Rectifying Potassium channel (GIRK) were plated in clear bottom assay plates for assay in a Hamamatsu FDSS Fluorometric Plate Reader. The cells were loaded with either a Ca2+-sensitive fluorescent dye Fluo-4 or the thallium responsive dye BTC, AM and the plates were washed and placed into a suitablekinetic plate reader. For human mGluR4 assays, a fluorescence baseline was established for 3-5 seconds, the disclosed compounds were then added to the cells, and the response in cells was measured. Approximately two and a half minutes later, a concentration of mGluR4 orthosteric agonist (e.g. glutamate or L-AP4) eliciting approximately 20% (EC20) of the maximal agonist response was added to the cells, and the response was measured. Two minutes later, a concentration of mGluR4 agonist (e.g. glutamate or L-AP4) eliciting 80% (EC80) of the maximal agonist response was added to the cells, and the response was measured. For rat mGluR4/GIRK experiments, a baseline was established for approximately five seconds, disclosed compounds were added, and either an EC20 or EC80 concentration of agonist was added approximately two and one half minutes later. Potentiation of the agonist response of mGluR4 by the disclosed compounds was observed as an increase in response to the EC20 concentration of agonist in the presence of compound compared to the response to agonist in the absence of compound. Similarly, antagonism of the agonist response of mGluR4 by the disclosed compounds was observed as a decrease in response to the EC80 concentration of agonist in the presence of compound compared to the response to agonist in the absence of compound.
The above described assay operated in two modes. In the first mode, a range of concentrations of the disclosed compounds are added to cells, followed by a single fixed concentration of agonist. If the compound acts as a potentiatior, an EC50 value for potentiation and a maximum extent of potentiation by the compound at this concentration of agonist is determined by non-linear curve fitting. If the compound acts as a noncompetitive antagonist, an IC50 value is determined by non-linear curve fitting. In the second mode, several fixed concentrations of the disclosed compounds are added to various wells on a plate, followed by a range in concentrations of agonist for each concentration of disclosed compound. The EC50 values for the agonist at each concentration of compound are determined by non-linear curve fitting. A decrease in the EC50 value of the agonist with increasing concentrations of the sample compound (a leftward shift of the agonist concentration-response curve) is an indication of the degree of mGluR4 potentiation at a given concentration of the sample compound. A decrease in the maximal response of the agonist with increasing concentrations of the sample compounds, with or without a rightward shift in agonist potency, is an indication of the degree of noncompetitive antagonism at mGluR4. The second mode also indicates whether the sample compounds also affect the maximum response to mGluR4 to agonists.
These compounds are positive allosteric modulators (potentiators) of human and rat mGluR4 and were selective for mGluR4 compared to the other seven subtypes of metabotropic glutamate receptors.

[1] = intraperitoneal pharmacokinetics in male SD rats (plasma and brain); type: in vivo, rat; parameters: AUC(0-8) Brain: unit not given here; conditions: 10 mg/kg ip; for AUC(0-8) Brain / AUC(0-t): 0-8 h; for Log BB: brain/plasma
Procedure: FIG. 2 is a graph showing intraperitoneal pharmacokinetics of a compound of the present invention in male SD rats (N=3); Formulation: 10% tween 80 microsuspension; Dose: 10 mg/kg; Time points: 0.5 h, 1 h, 2 h, 4 h & 8 h; data are summarized in Table 1 and Table 2.
FIG. 3 is a graph showing intraperitoneal pharmacokinetics of a compound of the present invention in male SD rats (˜300 g); Dose:10 mg/kg, ip; Time points: 0.5 h, 1 h & 8 h (n=3); data are summarized in Table 1 and Table 2.
FIG. 4 is a graph showing intraperitoneal pharmacokinetics of a compound of the present invention in male SD rats (˜300 g); Dose:10 mg/kg, ip; Time points: 0.5 h, 1 h & 8 h (n=3); data are summarized in Table 1 and Table 2.
Additionally, certain exemplary disclosed compounds were evaluated for pharmacokinetic efficacy.

[2] = rat, brain, read-out: Elimination T1/2 Brain (converted)
[3] = rat, brain, read-out: Tmax Brain
[4] = rat, plasma, read-out: Elimination T1/2 Plasma (converted)
[5] = rat, plasma, read-out: Tmax Plasma

SMILES	% GluMax (mGluR4)	EC50 (mGluR4)	other results
O=C(Nc1ccc(F)cn1)c1ccc(N2S(=O)(=O)c3ccccc3S2(=O)=O)cc1 [Example 15, N-(5-fluoropyridin-2-yl)-4-(1,1,3,3-tetraoxidobenzo[d][1,3,2]dithiazol-2-yl)benzamide]	84%	272 nM	
O=C(Nc1ccc(N2S(=O)(=O)c3ccccc3S2(=O)=O)cc1)C1CCCCO1 (centres unmarked) [Example 9, N-(4-(1,1,3,3-tetraoxidobenzo[d][1,3,2]dithiazol-2-yl)phenyl)tetrahydro-2H-pyran-2-carboxamide]	166%	914 nM	
O=C(Nc1ccc(N2S(=O)(=O)c3ccccc3S2(=O)=O)cc1)C1CCCCC1 [Example 3, N-(4-(1,1,3,3-tetraoxidobenzo[d][1,3,2]dithiazol-2-yl)phenyl)cyclohexanecarboxamide]	96%	128 nM	
O=C(Nc1ccc(N2S(=O)(=O)c3ccccc3S2(=O)=O)cc1)c1cccc(F)n1 [Example 5, 6-Fluoro-N-(4-(1,1,3,3-tetraoxidobenzo[d][1,3,2]dithiazol-2-yl)phenyl)picolinamide]	198%	179 nM	
O=C(Nc1ccc(N2S(=O)(=O)c3ccccc3S2(=O)=O)cc1)c1ccncn1 [Example 6, N-(4-(1,1,3,3-tetraoxidobenzo[d][1,3,2]dithiazol-2-yl)phenyl)pyrimidine-4-carboxamide]	247%	286 nM	
O=C(Nc1ccc(N2S(=O)(=O)c3ccccc3S2(=O)=O)cc1)c1ccco1 [Example 2, N-(4-(1,1,3,3-tetraoxidobenzo[d][1,3,2]dithiazol-2-yl)phenyl)furan-2-carboxamide]	284%	50 nM	
O=C(Nc1ccc(N2S(=O)(=O)c3ccccc3S2(=O)=O)cc1F)c1ccccn1 [Example 13, N-(2-fluoro-4-(1,1,3,3-tetraoxidobenzo[d][1,3,2]dithiazol-2-yl)phenyl)picolinamide]	62%	739 nM	
O=C(Nc1ccc(N2S(=O)(=O)c3ccccc3S2(=O)=O)cc1)c1ncccc1F [Example 8, 3-Fluoro-N-(4-(1,1,3,3-tetraoxidobenzo[d][1,3,2]dithiazol-2-yl)phenyl)picolinamide]	69%	49.6 nM	
O=S1(=O)c2ccccc2S(=O)(=O)N1c1ccc(NC2(c3ccccn3)CC2)cc1 [Example 17]	165%	134 nM	
O=C(Nc1ccc(N2S(=O)(=O)c3ccccc3S2(=O)=O)cc1F)c1ccco1 [Example 12, N-(2-fluoro-4-(1,1,3,3-tetraoxidobenzo[d][1,3,2]dithiazol-2-yl)phenyl)furan-2-carboxamide]	125%	9130 nM	
O=C(Nc1ccc(N2S(=O)(=O)c3ccccc3S2(=O)=O)cc1)c1ncc(F)cc1F [Example 11, 3,5-Difluoro-N-(4-(1,1,3,3-tetraoxidobenzo[d][1,3,2]dithiazol-2-yl)phenyl)picolinamide]	195%	1650 nM	
O=C(Nc1ccc(N2S(=O)(=O)c3ccccc3S2(=O)=O)cc1)c1ccccc1 [Example 1, N-(4-(1,1,3,3-tetraoxidobenzo[d][1,3,2]dithiazol-2-yl)phenyl)benzamide]	146%	203 nM	
O=C(Nc1ccc(N2S(=O)(=O)c3ccccc3S2(=O)=O)cc1)c1ccco1 [drawing 140]			V/F [1]: 1.49 L; Cmax Brain ([1]; brain): 2842.81 ± 544.93 ng/mL or g; AUC(0-8) Brain ([1]; brain): 12937.04 ± 2079.74; Log BB [1]: −0.19; half-life [1, 2]: 3.79 h; Tmax [1, 3]: 1 h; Cmax ([1]; rat, plasma): 5690 ± 1360 ng/mL; AUC(0-t) ([1]; rat, plasma): 20500 ± 5180 ng·h/mL; half-life [1, 4]: 2.39 h; Tmax [1, 5]: 1 h; CL/F ([1]; rat, plasma): 7.16 mL/min/kg
O=C(Nc1ccc(N2S(=O)(=O)c3ccccc3S2(=O)=O)cc1)c1ccccn1 [Example 4, N-(4-(1,1,3,3-tetraoxidobenzo[d][1,3,2]dithiazol-2-yl)phenyl)picolinamide]	254%	38.1 nM	
O=S1(=O)c2ccccc2S(=O)(=O)N1c1ccc(Nc2ccccn2)nc1 [Example 18, 2-(6-(pyridin-2-ylamino)pyridin-3-yl)benzo[d][1,3,2]dithiazole 1,1,3,3-tetraoxide]	73%	5450 nM	
O=C(Nc1ccc(N2S(=O)(=O)c3ccccc3S2(=O)=O)cc1)c1nccs1 [Example 7, N-(4-(1,1,3,3-tetraoxidobenzo[d][1,3,2]dithiazol-2-yl)phenyl)thiazole-2-carboxamide]	216%	142 nM	
O=S1(=O)c2ccccc2S(=O)(=O)N1c1ccc(NCc2ccccn2)cc1 [Example 16, 2-(4-((pyridine-2-ylmethyl)amino)phenyl)benzo[d][1,3,2]dithiazole-1,1,3,3-tetraoxide]	161%	2140 nM	
O=C(Nc1ccc(N2S(=O)(=O)c3ccccc3S2(=O)=O)cc1)c1ccccc1 [drawing 139]			V/F [1]: 5.2 L; Cmax Brain ([1]; brain): 775.51 ± 90.00 ng/mL or g; AUC(0-8) Brain ([1]; brain): 405.32 ± 98.82; Log BB [1]: −0.9; Tmax [1, 3]: 1 h; Cmax ([1]; rat, plasma): 1470 ± 41 ng/mL; AUC(0-t) ([1]; rat, plasma): 3280 ± 244 ng·h/mL; half-life [1, 4]: 1.21 h; Tmax [1, 5]: 1 h; CL/F ([1]; rat, plasma): 51.2 mL/min/kg
O=C(Nc1ccc(N2S(=O)(=O)c3ccccc3S2(=O)=O)cc1)c1cscn1 [Example 10, N-(4-(1,1,3,3-tetraoxidobenzo[d][1,3,2]dithiazol-2-yl)phenyl)thiazole-4-carboxamide]	231%	68.8 nM	
O=C(Nc1ccccn1)c1ccc(N2S(=O)(=O)c3ccccc3S2(=O)=O)cc1 [Example 14, N-(pyridin-2-yl)-4-(1,1,3,3-tetraoxidobenzo[d][1,3,2]dithiazol-2-yl)benzamide]	39%	113 nM	
O=C(Nc1ccc(N2S(=O)(=O)c3ccccc3S2(=O)=O)cc1)C1CCCCC1 [drawing 138]			V/F [1]: 6.7 L; Cmax Brain ([1]; brain): 983.43 ± 188.76 ng/mL or g; AUC(0-8) Brain ([1]; brain): 6295.60 ± 876.30; half-life [1, 2]: 12.2 h; Tmax [1, 3]: 0.5 h; Log BB ([1]; rat): 0.26; Cmax ([1]; rat, plasma): 1930 ± 845 ng/mL; AUC(0-t) ([1]; rat, plasma): 3400 ± 2990 ng·h/mL; half-life [1, 4]: 1.67 h; Tmax [1, 5]: 0.5 h; CL/F ([1]; rat, plasma): 46.7 mL/min/kg
